For one compound, IC50 results are on record in patent publication US9849132B2, “Products and pharmaceutical compositions” (Intra-Cellular Therapies, Inc., priority 2014, dated 2017).

Molecules are shown by their SMILES.

By IC50 is commonly meant the concentration that inhibits the measured activity by half.

In this experiment the target is PDE1 (3′,5′-cyclic-nucleotide-specific bovine brain phosphodiesterase). The experiment is described as follows: Measurement of PDE1 inhibition in vitro using IMAP phosphodiesterase assay kit. The experiment is classed as biochemical. As to conditions: IMAP fluorescence polarization, FL-GMP substrate, bovine brain phosphodiesterase with calmodulin. From the text:
Phosphodiesterase 1B (PDE1B) is a calcium/calmodulin dependent phosphodiesterase enzyme that converts cyclic guanosine monophosphate (cGMP) to 5′-guanosine monophosphate (5′-GMP). PDE1B can also convert a modified cGMP substrate, such as the fluorescent molecule cGMP-fluorescein, to the corresponding GMP-fluorescein. The generation of GMP-fluorescein from cGMP-fluorescein can be quantitated, using, for example, the IMAP (Molecular Devices, Sunnyvale, Calif.) immobilized-metal affinity particle reagent.
Briefly, the IMAP reagent binds with high affinity to the free 5′-phosphate that is found in GMP-fluorescein and not in cGMP-fluorescein. The resulting GMP-fluorescein—IMAP complex is large relative to cGMP-fluorescein. Small fluorophores that are bound up in a large, slowly tumbling, complex can be distinguished from unbound fluorophores, because the photons emitted as they fluoresce retain the same polarity as the photons used to excite the fluorescence.
In the phosphodiesterase assay, cGMP-fluorescein, which cannot be bound to IMAP, and therefore retains little fluorescence polarization, is converted to GMP-fluorescein, which, when bound to IMAP, yields a large increase in fluorescence polarization (Δmp). Inhibition of phosphodiesterase, therefore, is detected as a decrease in Δmp. […]
A decrease in GMP concentration, measured as decreased Δmp, is indicative of inhibition of PDE activity. […]
On the technique in general: In fluorescence polarisation assays a small probe gives low polarisation when free and higher when bound to something large.

`CN1C(=O)c2c(nn(Cc3ccc(-c4ccccn4)cc3)c2Nc2ccccc2)N2C1=N[C@@H]1CCC[C@@H]12` [Example 1, (6aR,9aS)-5,6a,7,8,9,9a-hexahydro-5-methyl-3-(phenylamino)-2-((4-Pyridin-2yl)-benzyl)-cyclopent[4,5]imidazo[1,2-a]pyrazolo[4,3-e]pyrimidin-4(2H)-one]: the IC50 worked out at 0.105 nM.
